Data: article PMC8645336, “Benchmarking a highly selective USP30 inhibitor for enhancement of mitophagy and pexophagy” (Life Science Alliance, 2021)

Assays:
Assay in all cases: biochemical
Design in all cases: Ubiquigent DUB profiler selectivity panel, remaining enzyme activity as % of control
Details in all cases: read-out: % of control remaining
Ataxin3 = target: T1, Ataxin3 (Homo sapiens, UniProt P54252)
T1 construct: gene ATXN3
Summary of the method: (§1)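 In YFP-PRKN-overexpressing hTERT-RPE1 cells, 1 h antimycin A plus oligomycin A (1 μM each) with CMPD-39, then Western blot of TOMM20 ubiquitylation. Target engagement: 2 h compound, then 10 min HA-Ub-PA at 37°C, read as USP30 shift. DUB panel (>40 enzymes) screened at 1-100 μM.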

USP15 = target: T2, USP15 (Homo sapiens, UniProt Q9Y4E8)
T2 sequence (Q9Y4E8 1-981): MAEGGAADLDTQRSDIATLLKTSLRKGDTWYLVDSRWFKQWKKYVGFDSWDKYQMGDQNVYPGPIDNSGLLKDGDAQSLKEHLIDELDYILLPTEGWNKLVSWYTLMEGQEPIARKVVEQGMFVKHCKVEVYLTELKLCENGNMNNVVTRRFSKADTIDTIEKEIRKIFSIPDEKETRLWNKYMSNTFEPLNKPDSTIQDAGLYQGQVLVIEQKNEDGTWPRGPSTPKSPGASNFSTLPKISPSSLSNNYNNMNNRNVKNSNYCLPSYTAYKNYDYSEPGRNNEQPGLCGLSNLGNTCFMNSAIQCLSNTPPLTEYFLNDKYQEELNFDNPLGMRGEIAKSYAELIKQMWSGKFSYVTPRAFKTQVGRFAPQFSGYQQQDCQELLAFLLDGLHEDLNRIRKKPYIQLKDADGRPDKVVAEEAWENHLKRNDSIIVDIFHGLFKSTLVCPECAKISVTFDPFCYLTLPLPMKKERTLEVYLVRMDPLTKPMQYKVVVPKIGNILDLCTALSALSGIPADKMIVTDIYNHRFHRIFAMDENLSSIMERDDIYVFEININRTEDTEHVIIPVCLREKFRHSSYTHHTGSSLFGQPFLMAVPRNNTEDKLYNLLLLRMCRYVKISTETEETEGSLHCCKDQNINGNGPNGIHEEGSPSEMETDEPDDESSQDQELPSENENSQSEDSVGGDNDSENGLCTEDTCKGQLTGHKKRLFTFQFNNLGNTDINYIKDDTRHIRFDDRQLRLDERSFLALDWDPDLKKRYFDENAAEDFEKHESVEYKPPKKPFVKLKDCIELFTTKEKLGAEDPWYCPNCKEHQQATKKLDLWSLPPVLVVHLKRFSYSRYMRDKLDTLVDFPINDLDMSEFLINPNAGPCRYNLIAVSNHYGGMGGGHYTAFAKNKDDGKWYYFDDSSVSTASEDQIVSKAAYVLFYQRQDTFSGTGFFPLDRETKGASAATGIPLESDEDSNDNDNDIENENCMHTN
Summary of the method: as §1

USP21 = target: T3, USP21 (Homo sapiens, UniProt Q9UK80)
T3 sequence (Q9UK80 1-565): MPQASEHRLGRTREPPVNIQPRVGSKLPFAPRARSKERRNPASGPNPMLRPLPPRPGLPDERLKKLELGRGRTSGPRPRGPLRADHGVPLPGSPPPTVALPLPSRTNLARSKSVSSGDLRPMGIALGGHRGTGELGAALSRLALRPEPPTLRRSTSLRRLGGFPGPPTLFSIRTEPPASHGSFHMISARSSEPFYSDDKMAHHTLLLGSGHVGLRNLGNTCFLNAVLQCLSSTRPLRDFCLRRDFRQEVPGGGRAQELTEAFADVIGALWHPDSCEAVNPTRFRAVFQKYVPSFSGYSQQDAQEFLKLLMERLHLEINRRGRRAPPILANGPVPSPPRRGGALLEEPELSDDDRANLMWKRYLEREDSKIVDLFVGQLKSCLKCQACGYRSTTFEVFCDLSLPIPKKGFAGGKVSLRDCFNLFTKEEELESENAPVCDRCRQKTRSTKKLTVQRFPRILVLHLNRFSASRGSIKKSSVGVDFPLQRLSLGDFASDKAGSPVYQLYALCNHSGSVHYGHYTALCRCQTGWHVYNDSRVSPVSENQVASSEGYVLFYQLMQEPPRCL
Summary of the method: as §1

T1 sequence (P54252 whole entry): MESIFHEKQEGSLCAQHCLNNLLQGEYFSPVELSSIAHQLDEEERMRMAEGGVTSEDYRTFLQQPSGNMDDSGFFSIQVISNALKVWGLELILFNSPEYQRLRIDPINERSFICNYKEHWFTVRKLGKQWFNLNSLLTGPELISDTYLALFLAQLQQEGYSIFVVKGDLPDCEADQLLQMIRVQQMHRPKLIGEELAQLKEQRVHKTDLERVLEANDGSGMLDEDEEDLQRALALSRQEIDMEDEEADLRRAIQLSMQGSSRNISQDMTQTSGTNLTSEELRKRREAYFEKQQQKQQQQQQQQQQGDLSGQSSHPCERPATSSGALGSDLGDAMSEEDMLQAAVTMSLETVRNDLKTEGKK

remaining activity at 1 µM (USP15): 103%
remaining activity at 10 µM (USP15): 101%
remaining activity at 100 µM (USP15): 98.1%
remaining activity at 1 µM (USP21): 102%
remaining activity at 10 µM (USP21): 94%
remaining activity at 100 µM (USP21): 90.9%
Compound: CC(C)(C)NS(=O)(=O)c1ccc(NC(=O)[C@H](Cc2ccccc2)NC(=O)c2ccc(F)cc2)cc1 [compound 39, CMPD-39]
remaining activity at 1 µM (Ataxin3): 102%
remaining activity at 10 µM (Ataxin3): 102%
remaining activity at 100 µM (Ataxin3): 101%
